Measurements from patent US6372741B1, “Use of CSAID™ compounds as inhibitors of angiogenesis” (SmithKline Beecham Corporation, priority 1996, dated 2002).

Key:
[1] = test system: angiogenesis in granuloma (vascular index); assay: Murine air pouch granuloma model: vascular index by carmine vascular cast; assay type: in vivo, mice; conditions: for maximum reduction in vascular index: Compound I at 50 mg.kg, bid, i.p., versus vehicle control
Text: (§1) The murine airpouch granuloma model of chronic inflammation (Kimura et al., 1985, J. Pharmacobio-Dyn., 8:393-400; Colville-Nash et al.,1995, J. Pharm. and Exp. Ther., 274:1463-1472) whose disclosure is incorporated herein by reference in its entirety, is characterized by inflammatory cell influx, fibrous tissue proliferation and intense angiogenesis. […] In addition, angiogenesis can be accurately quantitated by a vascular casting method.
(§2) Murine air pouch granuloma model
(§3) Day-1, mice are anesthetized using Aerrane (isoflurane) gas (5%), after which 3mls of air is injected into the dorsal subcutaneous tissue using a 27 g needle. Mice are allowed to recover.
(§4) Day 0, mice are again anesthetized using Aerrane, once anesthetized 0.5 ml of Freunds complete adjuvant with 0.1% v/v croton oil is injected into the air pouch formed on Day-1. The animals also begin their dosing regime (number of days dependent upon study) with the animals typically receiving compound in 0.2 ml N,N, Dimethyl Acetoacetamide(DMA)(Sigma, St. Louis, Mo.)/Cremephor El (Sigma, St. Louis, Mo.)/saline (10/10/80) or other appropriate vehicle. The animals are allowed to recover and all subsequent dosing is performed on the animals in the absence of anesthetics.
(§5) Days 1-5, animals are dosed according to schedule.
[…] Louis, Mo.)/gelatin (5%)(Sigma, St. Louis, Mo.) solution. The animals are then sacrificed by lethal dose of anesthesia and chilled at 4 C for 2 hours prior to the removal of the granuloma tissue.
(§6) When the granuloma is removed it is weighed and then dried for 3 days at 45 C and reweighed. The dried tissue is then digested in 0.9 ml of a 0.05M phosphate buffer pH 7.0 containing 12 U/ml^−1 papain (Sigma, St. Louis, Mo.) and 0.33 g/L^−1 N-acetyl-1-Cysteine (Sigma, St. Louis, Mo.) at 57 C for 3 days. After 3 days digestion the carmine red is solubilized by the addition of 0.1 ml 5 mM NaOH. Samples are centrifuged and then filtered using 0.2 um acrodiscs. The carmine content is then determined against a carmine red standard curve (0.5 to 2 mg/ml) generated in extracted tissue from non carmine treated animals and read at 490 nm. Sample and standard values are determined using DeltaSoft Elisa analysis software (Biometallics Inc., Princeton, N.J.). The carmine content is then used to determine the vascular indexes for the various treatments, vascular index being the mg carmine dye/gm dry tissue.

[2] = test system: granuloma size (dry weight); assay: Murine air pouch granuloma model: granuloma size by dry weight; assay type: in vivo, mice; conditions: for effect on granuloma size as measured by dry weight: day 6 granuloma
Text: as §1, §2, §3, §4, §5
Louis, Mo.)/gelatin (5%)(Sigma, St. Louis, Mo.) solution. […]
as §6, with “The carmine content is then used to determine the vascular indexes for the various treatments, vascular index being the mg carmine dye/gm dry tissue.” left out

granuloma vasculature = assay: Microscopic evaluation of vasculature in day 6 granulomas; assay type: in vivo; conditions: treated versus untreated mice
Text: Angiogenesis in the granuloma was microscopically evaluated. The vasculature of day 6 granulomas from both untreated and compound I treated mice was examined. […] In fact, there was a almost no fine capillaries visible, only a few larger vessels.

TNF-α = TNF-α levels in granuloma tissue homogenates by ELISA; assay type: in vivo, mice; conditions: 30 mg/kg orally twice a day; day 7
Procedure: (§7) The levels of these cytokines over the course to granuloma development were measured to determine if the modulation of their expression by the compound correlated with angiogenesis. Cytokine levels were measured by ELISA using homogenates of granuloma tissue. TNF-α levels rose sharply, peaking at day 7 and dropping back down to moderate levels by day 14 (FIG. 2). […] Thus, the ability of the compound to block the sharp rise in TNF-α and IL-1β between days 5 and 7 correlated well with the ability of the compound to prevent the increase in vascular index that occurs over the same time points.
(§8) Tissue extracts were made by homogenizing granulomas in 0.5 ml 5 mM KH2PO4/0.1 gm wet tissue. IL-1β levels were determined using a Cytoscreen Immunoassay Kit (catalog #KMC 0012) from BioSource International, Camarillo, Calif. TNF-α levels were determined using the following assay: plates were coated with hamster anti-murine TNF-α antibody (Genzyme, Cambridge, Mass.), for 2 hours at 37° C., washed and blocked with a casein-BSA solution (5 gram/L for each) for 1 hour at 37° C., the samples were added and incubated at 4° C. overnight. […] The reaction was terminated with 25 ul 0.1M NaF per well, the O.D. read at 460 nm. Sample values for both ELISAs are calculated using DeltaSoft ELISA analysis software (Biomettalics Inc., Princeton, N.J.).

IL-1β = IL-1β levels in granuloma tissue homogenates by ELISA; assay type: in vivo, mice; conditions: 30 mg/kg orally twice a day; peak at day 7
Procedure: as §7, §8

Compound	vascular index (VI) compared to control at day 3 ([1]; 30 mg/kg orally twice a day from day 0, day 3)	vascular index (VI) compared to control at days 5, 7 and 14 ([1]; 30 mg/kg orally twice a day from day 0, days 5, 7 and 14)	decrease in the vascular index (in words) ([1]; day 6 granuloma, dosing from induction)	maximum reduction in vascular index ([1]; day 6 granuloma) [%]	granuloma size over time course ([2]; 30 mg/kg orally twice a day from day 0, days 3, 5, 7 and 14)	effect on granuloma size as measured by dry weight [2]	vasculature of granuloma, microscopic evaluation (granuloma vasculature)	TNF-α levels in granuloma (TNF-α)	IL-1β expression in granuloma (IL-1β)
Nc1nccc(-c2c(-c3ccc(F)cc3)ncn2C2CCNCC2)n1 [Compound I, 1-Piperidine-4-(4-fluorophenyl)-5-(2-aminopyrimidin-4-yl)imidazole]	did not cause a significant reduction in VI	lowered significantly	significant and dose dependent decrease	44	unaffected by the compound	Neither Compound I nor medroxyprogesterone had an effect	striking reduction in the vasculature	greatly reduced TNF-α levels	effectively blocked the increased IL-1β expression
medroxyprogesterone [reference compound]				50		Neither Compound I nor medroxyprogesterone had an effect			
